# Assay results as given in US8609651B2, “Pharmaceutical compositions of benzodiazepines and method of use thereof” (Jazz Pharmaceuticals, Inc., priority 2006, dated 2013).
# Read-outs that look alike come from different tables or passages of the source.
# Key:
# [1] = Saturated solubility in receiver fluid systems (HPLC); settings: 37 °C, thermodynamic from solid
# Description: Following the stability studies, a suitable receiver fluid was developed in order to ensure that sink conditions for tested drug were such that the drug release was limited by the solubility of the drug in the receiver fluid. […] Briefly, drug was saturated into different receiver fluid systems by adding excess drug and allowed to stir with a magnetic flea over a period of 2 h at 37° C. Each saturated solution was then filtered using a 0.2 μm syringe filter and the resultant solution was assayed via HPLC.
# Calibration curves for clonazepam were constructed between 0.2 to 10 μg/mL with appropriate replicates to ensure repeatability and linearity.
# Standards were prepared in receiver fluid (10% ethanol in buffer 6). […] The filtration at room temperature was performed as quickly as possible to minimize any drug precipitation as the temperature dropped from 37° C. during filtration.
# [2] = Drug recovery, degradation and binding to nasal sheep mucosa; format: in vitro ADME; settings: sheep nasal mucosa (excised tissue) in buffer, 37° C., read-out: % recovery in the presence of nasal sheep mucosa
# Description: (i) Drug recovery, degradation and binding to nasal sheep mucosa: The effect of drug recovery, degradation and binding to sheep nasal mucosa was determined. Briefly, a known surface area (approx. 1 cm^2) of sheep nasal mucosa was added into a glass vial containing a known concentration (10 μg/mL) of each drug prepared in the receiver fluid (10% ethanol in pH 6 buffer). The content of the vial was allowed to equilibrate at 37° C. over a period of 48 h. At 24 h intervals, a sample was removed and assayed via HPLC. The percentage of drug recovered was calculated using Equation 4: % drug recovered=(drug concentration at t=Y/drug concentration at t=Z)×100 (Equation 4)
# where, Y=specific time point at 37° C. (in the presence of nasal sheep mucosa); and Z=specific time point at 37° C. (in the absence of nasal sheep mucosa).
# In addition to the stability against heat degradation, the effect of drug binding or degradation in the presence of nasal sheep mucosa was also determined (Table 6).
# [3] = Solubility of benzodiazepines in DEGEE (Transcutol) at 25° C. and −16° C.; settings: organic solvent or mixture, thermodynamic from solid
# Description: The solubilities of several other benzodiazepines were measured in DEGEE (diethylene glycol monoethyl ether, transcutol) by the techniques of Example 1. Initially, 10 mg of the drug was loaded in the glass vial and 130-μL of DEGEE was added, and the samples were sonicated for 10 minutes. […] Samples were stored at −16° C. and 25° C. overnight, and centrifuged (5000 rpm, 2 minutes, −10° C. and 23° C. for the −16° C. and 25° C. samples, respectively). […] Clonazepam was measured by UV at 350 nm; all others at 300 nm.
# [4] = Solubility of clonazepam in glycol ethers at 25° C.; settings: neat solvent, organic solvent or mixture, thermodynamic from solid
# Description: 10 mg of clonazepam was weighed into glass vials used in the Pfeiffer mono-dose spray system (Pfeiffer of America, Princeton, N.J.). Four samples of each of four solvents were prepared as follows. 130-μL of each solvent was pipetted into the vial, which was then stoppered with a black chlorobutyl rubber stopper.
# The vials were removed from the chamber, placed inside polyethylene centrifuge vials, and centrifuged for 2 minutes at 5000 rpm. 10 μL of liquid was then sampled from each vial, accurately weighed, and diluted with 1 mL of acetonitrile. The drug concentration was analyzed by UV using an Agilent HPLC system with no column, 10 μL injection volume, acetonitrile mobile phase, 0.3 mL/min and UV detection at 350 nm.
# [5] = Solubilities of clonazepam in water-containing solvents; format: physicochemical; settings: 25 °C
# Description: The vials were stored at 25° C. for approximately 1 day. Prior to sampling, the vials were centrifuged at 5000 rpm for 2 minutes at 23° C. The results are shown below; neat solvent solubilities from Example 11 are included for reference. Increased water content decreases solubility substantially.
# [6] = Human safety and tolerability (side effects); format: in vivo
# From the text: Somnolence was reported by 10 of 15 (approximately 67%) subjects after intranasal dosing and 13 of 15 (approximately 87%) subjects after oral dosing. Approximately 93% of the subjects reported somnolence or sedation ( 11/15 for somnolence and 3/15 for sedation) after intravenous dosing. Nasal discomfort was reported by 12 of 15 subjects (approximately 80%) after intranasal dosing.
# [7] = qEEG mapping in volunteers; format: in vivo; settings: human, oral
# [8] = Psychomotor, cognitive and subjective tests in volunteers; format: in vivo; settings: human
# [9] = in vivo; cited from earlier work
structure (smiles),measurement,setting,value
"O=C1CN=C(c2ccccc2Cl)c2cc([N+](=O)[O-])ccc2N1 [Clonazepam, 5-(2-chlorophenyl)-1,3-dihydro-7-nitro-2H-1,4-benzodiazepin-2-one]",solubility at 2 h,"[1]; pH 6, aqueous buffer, buffer pH 6, 37° C.",13.7 µg/mL
same,solubility at 2 h,"[1]; pH 6, aqueous with cosolvent or surfactant or cyclodextrin, 20% ethanol in buffer pH6, 37° C.",82.3 µg/mL
same,solubility at 2 h,"[1]; pH 6, aqueous with cosolvent or surfactant or cyclodextrin, receiver solution, 10% ethanol in buffer pH 6, 37° C.",29.3 µg/mL
same,"recovery at 24 h, 10 μg/mL",[2]; buffer pH 5 (10% ethanol),97.8%
same,"recovery at 48 h, 10 μg/mL",[2]; buffer pH 5 (10% ethanol),96.5%
same,"recovery at 24 h, 10 μg/mL",[2]; buffer pH 6 (10% ethanol),97.5%
same,"recovery at 48 h, 10 μg/mL",[2]; buffer pH 6 (10% ethanol),97.1%
same,"recovery at 24 h, 10 μg/mL",[2]; buffer pH 7 (10% ethanol),99.3%
same,"recovery at 48 h, 10 μg/mL",[2]; buffer pH 7 (10% ethanol),97.8%
same,solubility,[3]; 25 °C,38900 µg/mL
same,solubility,[3]; -16 °C,35300 µg/mL
same,solubility,"[4]; 1,2-dimethyxoethane",39300 µg/mL
same,solubility,[4]; di(ethylene glycol) diethyl ether,19000 µg/mL
same,solubility,[4]; di(ethylene glycol) methyl ether,56400 µg/mL
same,solubility,[4]; diethylene glycol monoethyl ether (DEGEE),41800 µg/mL
same,solubility,"[5]; 1,2-dimethyxoethane / pH 6.8 buffered water mixture (20:80), pH 6.8, aqueous with cosolvent or surfactant or cyclodextrin, kinetic from dmso stock, 1,2-dimethyxoethane 20% solvent, 80% pH6.8 buffered water, 25° C.",180 µg/mL
same,solubility,"[5]; 1,2-dimethyxoethane / pH 6.8 buffered water mixture (40:60), pH 6.8, aqueous with cosolvent or surfactant or cyclodextrin, kinetic from dmso stock, 1,2-dimethyxoethane 40% solvent, 60% pH6.8 buffered water, 25° C.",640 µg/mL
same,solubility,"[5]; 1,2-dimethyxoethane / pH 6.8 buffered water mixture (60:40), pH 6.8, aqueous with cosolvent or surfactant or cyclodextrin, kinetic from dmso stock, 1,2-dimethyxoethane 60% solvent, 40% pH6.8 buffered water, 25° C.",9200 µg/mL
same,solubility,"[5]; 1,2-dimethyxoethane / pH 6.8 buffered water mixture (80:20), pH 6.8, aqueous with cosolvent or surfactant or cyclodextrin, kinetic from dmso stock, 1,2-dimethyxoethane 80% solvent, 20% pH6.8 buffered water, 25° C.",29600 µg/mL
same,solubility,"[5]; 1,2-dimethyxoethane, neat solvent, organic solvent or mixture, 1,2-dimethyxoethane 100% solvent, 0% water, 25° C. (neat, from Example 11)",39300 µg/mL
same,solubility,"[5]; pH 6.8, aqueous with cosolvent or surfactant or cyclodextrin, kinetic from dmso stock, Di (ethylene glycol) methyl ether 20% solvent, 80% pH6.8 buffered water",260 µg/mL
same,solubility,"[5]; pH 6.8, aqueous with cosolvent or surfactant or cyclodextrin, kinetic from dmso stock, Di (ethylene glycol) methyl ether 40% solvent, 60% pH6.8 buffered water",1000 µg/mL
same,solubility,"[5]; pH 6.8, aqueous with cosolvent or surfactant or cyclodextrin, kinetic from dmso stock, Di (ethylene glycol) methyl ether 60% solvent, 40% pH6.8 buffered water",2800 µg/mL
same,solubility,"[5]; pH 6.8, aqueous with cosolvent or surfactant or cyclodextrin, kinetic from dmso stock, Di (ethylene glycol) methyl ether 80% solvent, 20% pH6.8 buffered water",18900 µg/mL
same,solubility,"[5]; pH 6.8, aqueous with cosolvent or surfactant or cyclodextrin, kinetic from dmso stock, Di (ethyleneglycol) diethyl ether 20% solvent, 80% pH6.8 buffered water",310 µg/mL
same,solubility,"[5]; pH 6.8, aqueous with cosolvent or surfactant or cyclodextrin, kinetic from dmso stock, Di (ethyleneglycol) diethyl ether 40% solvent, 60% pH6.8 buffered water",1230 µg/mL
same,solubility,"[5]; pH 6.8, aqueous with cosolvent or surfactant or cyclodextrin, kinetic from dmso stock, Di (ethyleneglycol) diethyl ether 60% solvent, 40% pH6.8 buffered water",8500 µg/mL
same,solubility,"[5]; pH 6.8, aqueous with cosolvent or surfactant or cyclodextrin, kinetic from dmso stock, Di (ethyleneglycol) diethyl ether 80% solvent, 20% pH6.8 buffered water",38800 µg/mL
same,solubility,"[5]; pH 6.8, aqueous with cosolvent or surfactant or cyclodextrin, kinetic from dmso stock, Diethylene glycol monoethyl ether 20% solvent, 80% pH6.8 buffered water",300 µg/mL
same,solubility,"[5]; pH 6.8, aqueous with cosolvent or surfactant or cyclodextrin, kinetic from dmso stock, Diethylene glycol monoethyl ether 40% solvent, 60% pH6.8 buffered water",520 µg/mL
same,solubility,"[5]; pH 6.8, aqueous with cosolvent or surfactant or cyclodextrin, kinetic from dmso stock, Diethylene glycol monoethyl ether 60% solvent, 40% pH6.8 buffered water",4500 µg/mL
same,solubility,"[5]; pH 6.8, aqueous with cosolvent or surfactant or cyclodextrin, kinetic from dmso stock, Diethylene glycol monoethyl ether 80% solvent, 20% pH6.8 buffered water",21800 µg/mL
same,solubility,"[5]; di(ethylene glycol) diethyl ether, neat solvent, organic solvent or mixture, Di (ethyleneglycol) diethyl ether 100% solvent, 0% water, 25° C. (neat, from Example 11)",19000 µg/mL
same,solubility,"[5]; di(ethylene glycol) methyl ether, neat solvent, organic solvent or mixture, Di (ethylene glycol) methyl ether 100% solvent, 0% water, 25° C. (neat, from Example 11)",56400 µg/mL
same,solubility,"[5]; diethylene glycol monoethyl ether (DEGEE), neat solvent, organic solvent or mixture, Diethylene glycol monoethyl ether 100% solvent, 0% water, 25° C. (neat, from Example 11)",41800 µg/mL
same,subjects reporting somnolence,"[6]; after intranasal dosing, 10 of 15",approximately 67%
same,subjects reporting nasal discomfort,"[6]; after intranasal dosing, 12 of 15",approximately 80%
same,subjects reporting somnolence or sedation,[6]; after intravenous dosing,Approximately 93%
same,subjects with sedation,[6]; after intravenous dosing,3/15
same,subjects with somnolence,[6]; after intravenous dosing,11/15
same,subjects reporting somnolence,"[6]; after oral dosing, 13 of 15",approximately 87%
same,changes in laboratory parameters,[6]; human,no clinically relevant changes
same,Somnolence reported in the study,"[6]; human, all routes",75.6%
same,nasal discomfort reported in the study,"[6]; human, all routes",26.7%
same,"time after dosing at which EEG pattern (increased delta and beta, decreased alpha and theta) was noted",[7],approximately 2 hours
same,time at which psychomotor and subjective effects were first apparent,[8]; intranasal,approximately 30 minutes
same,time at which psychomotor and subjective effects were first apparent,[8]; intravenous,approximately 30 minutes
same,time at which psychomotor and subjective effects were first apparent,[8]; oral,approximately 2 hours
same,amount excreted unchanged in the urine,[9],less than 0.5 % of a dose
same,excreted in the feces,[9],9-27 % of a dose
same,half-life,[9],18 to 50 h
same,roughly equal dose (potency equivalence),[9],~0.25 mg
